Data on 17 compounds can be found in ChEMBL document CHEMBL1137981, “Identification and specificity studies of small-molecule ligands for SH3 protein domains” (J Med Chem, 2004).

Bounds are passed on as bounds.

For data set [1], the target named is T1, Tyrosine-protein kinase TEC (Mus musculus, UniProt Q8CFK4).
T1 sequence (Q8CFK4 whole entry): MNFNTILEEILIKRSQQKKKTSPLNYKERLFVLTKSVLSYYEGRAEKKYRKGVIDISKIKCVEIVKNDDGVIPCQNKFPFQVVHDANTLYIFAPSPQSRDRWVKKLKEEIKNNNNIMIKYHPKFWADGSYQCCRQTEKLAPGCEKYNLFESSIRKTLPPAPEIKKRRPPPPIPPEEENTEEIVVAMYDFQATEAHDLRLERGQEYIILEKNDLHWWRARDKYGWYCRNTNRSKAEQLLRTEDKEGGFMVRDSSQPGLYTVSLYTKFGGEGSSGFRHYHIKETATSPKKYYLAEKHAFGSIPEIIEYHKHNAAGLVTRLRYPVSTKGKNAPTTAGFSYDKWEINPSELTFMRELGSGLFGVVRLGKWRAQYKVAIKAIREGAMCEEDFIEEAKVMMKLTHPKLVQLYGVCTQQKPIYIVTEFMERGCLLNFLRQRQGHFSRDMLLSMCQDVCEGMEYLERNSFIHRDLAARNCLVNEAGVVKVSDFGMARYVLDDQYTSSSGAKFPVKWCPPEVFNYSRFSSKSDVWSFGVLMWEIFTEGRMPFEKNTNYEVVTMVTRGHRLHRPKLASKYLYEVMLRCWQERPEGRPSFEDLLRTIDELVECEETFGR
Nature of the data set: Displacement of PRP-1 peptide from mouse Tec kinase SH3 domain by fluorescence polarization; No competition.

In data set [2] the target is T1, Tyrosine-protein kinase TEC. Nature of the data set: Displacement of PRP-1 peptide from mouse Tec kinase SH3 domain by fluorescence polarization.
The target is the same in data set [3]. Put plainly: Binding affinity to mouse Tec kinase SH3 domain by NMR chemical shift perturbation.
Data set [4] has the same target. Put plainly: Binding affinity to mouse Tec kinase SH3 domain by NMR chemical shift perturbation; No binding.
The nature of data set [5]: Ionization constant (pKa) for the compound. The format is physicochemical.
Data set [6] concerns the target SH2/SH3 adapter protein NCK1 (Homo sapiens, UniProt P16333). Nature of the data set: Displacement of PRP-1 peptide from human Nck […] SH3 domain by fluorescence polarization.
Data set [7] has as its target T1, Tyrosine-protein kinase TEC. Put plainly: Binding affinity to mouse Tec kinase SH3 domain by NMR chemical shift perturbation; No binding. The source holds these as a separate data set.

Take `Nc1ccc2cccc(O)c2n1`: the concentration giving a half-maximal response (EC50) entry in data set [1] is listed as “Not Active”. `Nc1ccc2cc(F)ccc2n1` returned a concentration giving a half-maximal response (EC50) in data set [2] of 150 µM. As to `CC1(C)COC(c2ccc3nc(N)ccc3c2)OC1`, in data set [3], the Kd was 22 µM. On to `O=c1ccc2ccccc2[nH]1`, for which the Kd entry in data set [4] is “Not Active”. Take `Nc1ncc2ccccc2n1`: the pKa in data set [5] was 4.82. On to `COc1ccc2nc(N)ccc2c1`, for which, in data set [2], the half-maximal effective concentration (EC50) came out at 63 µM. Turning to `CC(=O)Nc1ccc2ccccc2n1`, the Kd result in data set [4] is recorded as “Not Active”. For the compound `Nc1ccc2cc(Br)ccc2n1`, the concentration giving a half-maximal response (EC50) in data set [2] was 58 µM. `Nc1ccc2cc(Cl)ccc2n1` gave an EC50 in data set [2] of 76 µM. With `CNc1ccc2ccccc2n1`, the Kd in data set [3] came out at 380 µM. As to `Cc1ccc2nc(N)ccc2c1`, the Kd in data set [3] was determined as 61 µM. In addition, the results for the EC50 in data set [2] and in data set [6] were 75 µM and 90 µM, respectively.

For the compound `Nc1ccc2cc(C3OCCO3)ccc2n1`, the Kd in data set [3] worked out at 40 µM. Besides, the EC50 in data set [2] was found to be 34 µM; in data set [6], 300 µM. Turning to `Nc1ccc2cc(C3OCCCO3)ccc2n1`, the dissociation constant Kd in data set [3] came out at 52 µM. The EC50 was 26 µM in data set [2] and above 500 µM in data set [6]. For `Nc1ncccn1`, the pKa in data set [5] amounted to 3.54. The Kd entry in data set [7] is “Not Active”. With `Nc1ccccn1` [2-AMINOPYRIDINE], in data set [3], the dissociation constant (Kd) was above 4000 µM.

Turning to `Nc1ccc2ccccc2c1` [NAPHTHYLAMINE], the Kd result in data set [4] is “Not Active”. Still for that read-out and setting: as for `c1ccc2ncccc2c1` [QUINOLINE], the entry is “Not Active”.
